Data: patent US20260070945A1, “MACROCYCLIC IMMUNOMODULATORS” (Bristol-Myers Squibb Company, priority 2022, published 2026)
Where a SMILES comes first, the peptide text is derived from it. Bridges are numbered along the chain shown (N, C = ends). [ ]: non-standard residue; d: D form. The star is where a group is joined. X3 = NCCC[C@H](NC(=O)CNCCNCCN*)C(=O)NCCCCCCCCCCC(=O)O; X4 = NCC[C@H](NC(=O)CNCCNCCN*)C(=O)NCCCCCCCCCCC(=O)O; X7 = NC[C@H](NC(=O)CNCCNCCN*)C(=O)NCCCCCCCCCCC(=O)O; Bip = N[C@@H](Cc1ccc(-c2ccccc2)cc1)C(=O)O; Phe(3-Me) = Cc1cccc(C[C@H](N)C(=O)O)c1; Carboxymethyl = O=C(O)C*; NMeA = CN[C@@H](C)C(=O)O; Aun = NCCCCCCCCCCC(=O)O; Dap = NC[C@H](N)C(=O)O

The molecules below were run against T1, PD-1/PD-L1 interaction (PE-labeled human PD-L1-Ig binding to Jurkat cell line over-expressing human PD-1) (Homo sapiens, UniProt Q15116) (assay: Jurkat-PD-1 Cell Binding High-Content Screening Assay (CBA)). Details: Jurkat-hPD-1 cells, PE-labeled PD-L1-Ig 20 nM final; read-out: Jurkat HPD1 PDL1 IC50.
T1 construct: expressed in transfected cells; host or cells: Jurkat
T1 sequence (Q15116 25-288): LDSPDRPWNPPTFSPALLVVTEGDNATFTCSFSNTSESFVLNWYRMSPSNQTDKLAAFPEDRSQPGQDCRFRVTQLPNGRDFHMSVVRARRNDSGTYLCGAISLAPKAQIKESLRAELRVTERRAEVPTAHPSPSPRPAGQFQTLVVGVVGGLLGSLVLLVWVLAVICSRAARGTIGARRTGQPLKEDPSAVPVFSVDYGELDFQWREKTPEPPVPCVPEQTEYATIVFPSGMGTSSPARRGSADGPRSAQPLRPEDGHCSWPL
How it was run: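 Jurkat cells overexpressing human PD-1 (8×10^3/well, DMEM + 10% FCS) preincubated with compound 2 h at 37 °C, then PE-labelled human PD-L1-Ig (20 nM final) for 1 h. Cells fixed in paraformaldehyde with Hoechst 33342; bound PD-L1 quantified by high-content imaging.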

`Cc1cccc(C[C@@H]2NC(=O)[C@H](CC(=O)O)NC(=O)[C@H](Cc3ccc(OCC(=O)O)cc3)NC(=O)[C@H](CN)NC(=O)CSC[C@@H](C(=O)NCC(=O)N[C@@H](CCC(=O)O)C(=O)NCCCCCCCCCCC(=O)O)NC(=O)[C@H](CO)NC(=O)[C@H](C(C)C)NC(=O)[C@H](CC(C)C)NC(=O)[C@H](CC(N)=O)NC(=O)[C@@H](CC(C)C)NC(=O)[C@H](C)N(C)C(=O)[C@H](C(C)C)NC(=O)[C@H](Cc3ccc(-c4ccccc4)cc3)NC(=O)[C@H](CC(C)C)NC2=O)c1` [Example 1060] ({CH2CO}-[Dap]Y(Carboxymethyl)D[Phe(3-Me)]L[Bip]V[NMeA][dL]NLVSCGE[Aun]-OH; thioether N-14) and `Cc1cccc(C[C@@H]2NC(=O)[C@H](CC(=O)O)NC(=O)[C@H](Cc3ccc(OCC(=O)O)cc3)NC(=O)[C@H](CN)NC(=O)CSC[C@@H](C(=O)NCC(=O)N[C@@H](CC(=O)O)C(=O)NCCCCCCCCCCC(=O)O)NC(=O)[C@H](CO)NC(=O)[C@H](C(C)C)NC(=O)[C@H](CC(C)C)NC(=O)[C@H](CC(N)=O)NC(=O)[C@@H](CC(C)C)NC(=O)[C@H](C)N(C)C(=O)[C@H](C(C)C)NC(=O)[C@H](Cc3ccc(-c4ccccc4)cc3)NC(=O)[C@H](CC(C)C)NC2=O)c1` [Example 1061] ({CH2CO}-[Dap]Y(Carboxymethyl)D[Phe(3-Me)]L[Bip]V[NMeA][dL]NLVSCGD[Aun]-OH; thioether N-14) are within 1.5-fold of each other in IC50: 47.9 nM for the first, 42.9 nM for the second.

`Cc1cccc(C[C@@H]2NC(=O)[C@H](CC(=O)O)NC(=O)[C@H](Cc3ccc(OCC(=O)O)cc3)NC(=O)[C@H](CN)NC(=O)CSC[C@@H](C(=O)NCCNCCNCC(=O)N[C@@H](CN)C(=O)NCCCCCCCCCCC(=O)O)NC(=O)[C@H](CO)NC(=O)[C@H](C(C)C)NC(=O)[C@H](CC(C)C)NC(=O)[C@H](CC(N)=O)NC(=O)[C@@H](CC(C)C)NC(=O)[C@H](C)N(C)C(=O)[C@H](C(C)C)NC(=O)[C@H](Cc3ccc(-c4ccccc4)cc3)NC(=O)[C@H](CC(C)C)NC2=O)c1` [Example 1062] ({CH2CO}-[Dap]Y(Carboxymethyl)D[Phe(3-Me)]L[Bip]V[NMeA][dL]NLVSC-X7; thioether N-14) and `Cc1cccc(C[C@@H]2NC(=O)[C@H](CC(=O)O)NC(=O)[C@H](Cc3ccc(OCC(=O)O)cc3)NC(=O)[C@H](CN)NC(=O)CSC[C@@H](C(=O)NCCNCCNCC(=O)N[C@@H](CCN)C(=O)NCCCCCCCCCCC(=O)O)NC(=O)[C@H](CO)NC(=O)[C@H](C(C)C)NC(=O)[C@H](CC(C)C)NC(=O)[C@H](CC(N)=O)NC(=O)[C@@H](CC(C)C)NC(=O)[C@H](C)N(C)C(=O)[C@H](C(C)C)NC(=O)[C@H](Cc3ccc(-c4ccccc4)cc3)NC(=O)[C@H](CC(C)C)NC2=O)c1` [Example 1063] ({CH2CO}-[Dap]Y(Carboxymethyl)D[Phe(3-Me)]L[Bip]V[NMeA][dL]NLVSC-X4; thioether N-14) are within 1.5-fold of each other in IC50: 26.9 nM for the first, 27.9 nM for the second.

In the case of `Cc1cccc(C[C@@H]2NC(=O)[C@H](CC(=O)O)NC(=O)[C@H](Cc3ccc(OCC(=O)O)cc3)NC(=O)[C@H](CN)NC(=O)CSC[C@@H](C(=O)NCCNCCNCC(=O)N[C@@H](CCCN)C(=O)NCCCCCCCCCCC(=O)O)NC(=O)[C@H](CO)NC(=O)[C@H](C(C)C)NC(=O)[C@H](CC(C)C)NC(=O)[C@H](CC(N)=O)NC(=O)[C@@H](CC(C)C)NC(=O)[C@H](C)N(C)C(=O)[C@H](C(C)C)NC(=O)[C@H](Cc3ccc(-c4ccccc4)cc3)NC(=O)[C@H](CC(C)C)NC2=O)c1` [Example 1064] ({CH2CO}-[Dap]Y(Carboxymethyl)D[Phe(3-Me)]L[Bip]V[NMeA][dL]NLVSC-X3; thioether N-14), the IC50 is reported as 23.6 nM.
